Inconclusive results are not listed.
target: Virion infectivity factor (Human immunodeficiency virus type 1 group M subtype B (isolate BH10)) + Virion infectivity factor (Human immunodeficiency virus type 1 group M subtype B (isolate BRU/LAI)) + Virion infectivity factor (Human immunodeficiency virus type 1 group M subtype B (isolate PCV12)) + Virion infectivity factor (Human immunodeficiency virus type 1 group M subtype B (isolate HXB2)) + DNA dC->dU-editing enzyme APOBEC-3G (Homo sapiens) (UniProt P69720+P69721+P69722+P69723+Q9HC16); test: HIV-1 Vif–A3G interaction blockers – biochemical, TR-FRET, GST-Vif 1-94, biotin-A3G peptide, dose response retest, primary screen (AID 1117319); details: TR-FRET GST-Vif / biotin-A3G peptide binding;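 also: Vif residues 1-94 fused to GST binding biotinylated APOBEC3G peptide 110-148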

For `COC(=O)c1ccc(=O)c2nc3/c(=C/O)c(O)cc(=O)c3[nH]c12`, which IC50 is on record?
The IC50 was 0.35 µM.

`CN(CC(=O)Nc1cccc(F)c1)C(=O)c1cc(-c2ccco2)nc2ccccc12` was tested. Which IC50 did it give?
The IC50 was 4.8 µM.

How did the IC50 turn out when `CCCCC1=CC2=CC(=O)C(C)(OC(=O)c3cnc4ccccc4n3)C(=O)C2=CO1` (configuration not stated) was run?
Its IC50 is 12.4 µM.

For `CC(=O)N1CCN(c2ccc(NCc3ccc4c(c3)OCO4)cc2)CC1`, which IC50 is on record?
The IC50 was 3.78 µM.

With `C=CCn1c(N2CCCCCC2)nc2c1c(=O)[nH]c(=O)n2C` as the compound, how does the IC50 read?
Its IC50 is 30.1 µM.

For `Cc1c(F)cccc1NC(=O)CCCCCC1NC(=O)NC1C` (configuration not stated), which IC50 is on record?
The IC50 was 0.78 µM.

How did the IC50 turn out when `O=c1ccc2c(-c3ccccc3S(=O)(=O)O)c3ccc(O)c(O)c3oc-2c1O` was run?
The IC50 was 0.34 µM.

With `Clc1ccc(OCc2nn3c(-c4ccco4)nnc3s2)c(Cl)c1` as the compound, how does the IC50 read?
Its IC50 is 63.1 µM.

For `O=C(COC(=O)c1cc(-c2ccco2)nc2ccccc12)NCc1ccc2c(c1)OCO2`, which IC50 is on record?
Its IC50 is 12.5 µM.

With `CC(=O)Nc1ccc(N/C=C/C(=O)C(C)(C)C)cc1` as the compound, how does the IC50 read?
The IC50 was 40.8 µM.

`CNC[C@H](O)c1ccc(O)c(O)c1` was tested. Which IC50 did it give?
Its IC50 is 1.16 µM.

For `CCC(C)(C)n1nnnc1C(c1cc2cc(C)ccc2[nH]c1=O)N1CCCc2ccccc21` (configuration not stated), which IC50 is on record?
Its IC50 is 93.5 µM.

How did the IC50 turn out when `COc1cc(C(=O)OCCN2CCCCC2)ccc1O` was run?
The IC50 was 45.4 µM.

Which IC50 does the source give for `Oc1ccc(/C=N/NP(=S)(c2ccccc2)c2ccccc2)c(O)c1O` here?
The IC50 was 17.6 µM.

`CCCSC1=N/C(=C\C=C\c2ccco2)C(=O)S1` was tested. Which IC50 did it give?
Its IC50 is 3.79 µM.

`CC1(CCl)N([O-])C2=C(CCCC2)[N+]1=O` (configuration not stated) was tested. Which IC50 did it give?
The IC50 was 8.49 µM.

How did the IC50 turn out when `O=[n+]1c2c(n([O-])c3cc(Br)ccc31)CCC2` was run?
The IC50 was 19.4 µM.

How did the IC50 turn out when `NC(=O)COC(=O)c1ccc(Oc2ccccc2)cc1` was run?
Its IC50 is 98.9 µM.

Which IC50 does the source give for `COc1cccc(-n2c(/C=C/c3ccc(O)c(O)c3)nc3ccccc3c2=O)c1` here?
Its IC50 is 10.7 µM.

For `O=C(/C=C/c1ccco1)NC(=S)Nc1ccccc1N1CCOCC1`, which IC50 is on record?
The IC50 was 11.5 µM.

Which IC50 does the source give for `O=[n+]1c2c(n([O-])c3cc(Cl)ccc31)CCCC2` here?
Its IC50 is 9.81 µM.

For `COc1ccccc1NC(=O)COC(=O)c1cc2c(s1)CCC2`, which IC50 is on record?
Its IC50 is 17.6 µM.

For `Cc1cc(C(=O)CSc2nnc(-c3ccco3)o2)c(C)n1Cc1ccco1`, which IC50 is on record?
The IC50 was 1.97 µM.

With `O=C(Cc1cccs1)N/N=C/C=C/c1ccco1` as the compound, how does the IC50 read?
The IC50 was 3.68 µM.

For `CCOc1ccc(N(CC(=O)NC(C)(C)C)S(=O)(=O)c2c(C)noc2C)cc1`, which IC50 is on record?
The IC50 was 5.1 µM.

With `CCN1CCC(=NNC(=O)CC23CC4CC(CC(C4)C2)C3)CC1` as the compound, how does the IC50 read?
The IC50 was 97.5 µM.

How did the IC50 turn out when `CCOc1cccc(OCC)c2c(C)[n+](CC3CCCO3)c(C)c1-2` (configuration not stated) was run?
The IC50 was 0.85 µM.

With `CC1CCCCC1NC(=O)COC(=O)c1c2c(nc3ccccc13)/C(=C/c1ccco1)CC2` (configuration not stated) as the compound, how does the IC50 read?
The IC50 was 1.33 µM.

How did the IC50 turn out when `CCc1cccc(NC(=O)CCCCCC2NC(=O)NC2C)c1` (configuration not stated) was run?
The IC50 was 0.47 µM.

How did the IC50 turn out when `O=C1NC(=S)SC1=C1CCCC1` was run?
The IC50 was 6.2 µM.

With `O=C(CN1CCN(c2ccccc2O)CC1)Nc1ccc2c(c1)CCC2` as the compound, how does the IC50 read?
Its IC50 is 50.8 µM.

How did the IC50 turn out when `Nc1ccc(Nc2ccccc2)c(S(=O)(=O)O)c1` was run?
Its IC50 is 5.26 µM.

How did the IC50 turn out when `Cc1ccc(Nc2nc(C(=O)NCc3ccco3)cs2)cc1` was run?
Its IC50 is 78.2 µM.

`COc1cc(CNCCc2ccc(F)cc2)ccc1OCc1ccc(Cl)nc1` was tested. Which IC50 did it give?
Its IC50 is 3.18 µM.

`CCOC(=O)C1CCN(C(=O)Nc2ccc3nc(-c4ccco4)c(-c4ccco4)nc3c2)CC1` was tested. Which IC50 did it give?
The IC50 was under 0.432 µM.

With `C[n+]1cccc2cccc([O-])c21` as the compound, how does the IC50 read?
Its IC50 is 1.4 µM.

How did the IC50 turn out when `CCOc1ccc(C(=O)NC(=S)Nc2ccc(N3CCC(C)CC3)cc2)cc1[N+](=O)[O-]` was run?
Its IC50 is 55.4 µM.

Which IC50 does the source give for `CCN1C(=O)/C(=C\c2ccco2)C(C(=O)OC)=C1C` here?
The IC50 was 23 µM.

For `COc1cccc(-c2cc(C(=O)Nc3c(C)n(C)n(-c4ccccc4)c3=O)no2)c1`, which IC50 is on record?
Its IC50 is 72.5 µM.

`Cc1ccc2c(c1C)NC(C(=O)O)C1CC=CC21` (configuration not stated) was tested. Which IC50 did it give?
The IC50 was 0.59 µM.

`Cc1ccc(C)n1-c1ccc(-c2nnc3n2CCCCC3)s1` was tested. Which IC50 did it give?
Its IC50 is 8.58 µM.

With `O=c1oc(/C=C/c2ccco2)nc2sc3c(c12)CCC3` as the compound, how does the IC50 read?
The IC50 was 15.5 µM.

Which IC50 does the source give for `CN(CC(=O)Nc1c(Cl)cccc1Cl)C(=O)c1cccc(-n2cccc2)c1` here?
The IC50 was 31.3 µM.

Which IC50 does the source give for `CCCCn1c(=NC(=O)c2cccnc2)c(C#N)cc2c(=O)n3cccc(C)c3nc21` here?
The IC50 was 55.9 µM.

`O=C(NCCc1ccccc1)c1ccc2nc(-c3ccco3)c(-c3ccco3)nc2c1` was tested. Which IC50 did it give?
The IC50 was 3.01 µM.

`CCCNC1=C(C)C(=O)C2=C(C1=O)C(COC(N)=O)[C@]1(OC)C3NC3CN21` (some centres not stated) was tested. Which IC50 did it give?
Its IC50 is 8.12 µM.

For `CC1C=CC=CC=CC=CC=CC=CC=CC(OC2OC(C)C(O)C(N)C2O)CC2OC(O)(CC(O)CC(O)C(O)CCC(O)CC(O)CC(=O)OC(C)C(C)C1O)CC(O)C2C(=O)O` (configuration not stated), which IC50 is on record?
Its IC50 is 0.87 µM.

With `O=[N+]([O-])c1cc(CN2CCCC2)c2cccnc2c1O` as the compound, how does the IC50 read?
The IC50 was 2.48 µM.

Which IC50 does the source give for `O=C(CCS(=O)(=O)c1ccc(Br)cc1)N1CCN(c2ccc(F)cc2)CC1` here?
The IC50 was 52.8 µM.

For `Cc1cc(O)c(C(C)C)cc1N=Cc1ccc([N+](=O)[O-])cc1`, which IC50 is on record?
Its IC50 is 19 µM.

How did the IC50 turn out when `O=C1c2ccccc2CC1Sc1nnc(-c2ccccn2)o1` (configuration not stated) was run?
The IC50 was 98.4 µM.

`CCOc1cccc(=O)c2c(C)n(C)c(C)c12` was tested. Which IC50 did it give?
Its IC50 is 11.6 µM.

Which IC50 does the source give for `CC(C)(CS(=O)(=O)[O-])NC(=O)CC[N+](C)(C)CCO` here?
Its IC50 is 1.5 µM.

With `CCOC(=O)C1(C)NC(c2ccco2)C2C(=O)N(CC)C(=O)C21` (configuration not stated) as the compound, how does the IC50 read?
The IC50 was 99.2 µM.

How did the IC50 turn out when `CN(C)c1ccc(NC(=O)Cn2cc3c(n2)CCCC3)cc1` was run?
The IC50 was 6.08 µM.

With `O=C(c1ccc2nc(-c3ccco3)c(-c3ccco3)nc2c1)N1CCN(c2ncccn2)CC1` as the compound, how does the IC50 read?
The IC50 was 1.03 µM.

`CC1(C)CC(Nc2ccc(Nc3ccccc3)cc2)CC(C)(C)N1` was tested. Which IC50 did it give?
Its IC50 is 7.13 µM.

With `COC(=O)CCC(=O)OC1(C)C(=O)C=C2C=C3CCCN3C=C2C1=O` (configuration not stated) as the compound, how does the IC50 read?
Its IC50 is 2.23 µM.

With `Cc1[nH]c2ccccc2c1C1=CC(=O)C=CC1=O` as the compound, how does the IC50 read?
The IC50 was 4.25 µM.

How did the IC50 turn out when `CC1COCC(C)N1C1=C(Cl)C(=O)c2ccccc2C1=O` (configuration not stated) was run?
The IC50 was 11 µM.

With `O=C(COC(=O)c1ccc(NS(=O)(=O)c2cccs2)cc1)NCc1ccco1` as the compound, how does the IC50 read?
The IC50 was 5.88 µM.

For `Cc1c(C(=O)O)cccc1-n1c(C)cc(/C=N/Nc2ccc([N+](=O)[O-])cn2)c1C`, which IC50 is on record?
The IC50 was 12.6 µM.

For `O=C1NC(=O)N(Cc2ccccc2)C(=O)/C1=C\C=C\c1ccco1`, which IC50 is on record?
Its IC50 is 4 µM.

Which IC50 does the source give for `Cc1cc(C(C)c2ccccc2)c(O)c(CN2CCOCC2)c1C` (configuration not stated) here?
The IC50 was 28.8 µM.

`Fc1ccccc1/C=C1\CCCC2=C1Nc1ncnn1C2c1ccccc1F` (configuration not stated) was tested. Which IC50 did it give?
Its IC50 is 38.3 µM.

With `CCc1cc(=O)n2[nH]c(C)c(-c3ccccc3OC)c2n1` as the compound, how does the IC50 read?
The IC50 was 4.38 µM.

For `Cn1cccc1/C=C1/C(=O)NC(=S)N(Cc2ccc(F)cc2)C1=O`, which IC50 is on record?
Its IC50 is 1.24 µM.

How did the IC50 turn out when `CC(=C/c1ccco1)/C=N/NC(=O)Cc1cccn1C` was run?
The IC50 was 1.91 µM.

How did the IC50 turn out when `COc1ccc2ccccc2c1C1CC(=O)N2CN(Cc3ccco3)CSC2=C1C#N` (configuration not stated) was run?
The IC50 was 53.6 µM.

`Cc1cc(C(=O)CCl)c(C)n1-c1c(C)n(C)n(-c2ccccc2)c1=O` was tested. Which IC50 did it give?
The IC50 was 42.8 µM.

`O=C1OC(c2ccc3ccccc3c2O)(c2ccc3ccccc3c2O)c2ccccc21` was tested. Which IC50 did it give?
Its IC50 is 9.39 µM.

With `C/C(=N\Nc1ccc([N+](=O)[O-])cc1[N+](=O)[O-])c1cc2c(ccc3ccccc32)oc1=O` as the compound, how does the IC50 read?
Its IC50 is 2.92 µM.

For `CCOC(=O)C1=C(c2ccccc2)N=c2s/c(=C\c3ccco3)c(=O)n2C1c1cccs1` (configuration not stated), which IC50 is on record?
The IC50 was 3.76 µM.

`Cc1ccc2[nH]c(=O)c(C3C(C#N)=C(N)Oc4c3ccc3cccnc43)cc2c1` (configuration not stated) was tested. Which IC50 did it give?
Its IC50 is 24.3 µM.

Which IC50 does the source give for `CC(C)CCNC(=O)Cn1c2c(c(-c3ccccc3Cl)cc1=O)CCC2` here?
Its IC50 is 19.7 µM.

With `N#C/C(C(N)=O)=c1/ccc2c(c1)N1C3=C(CCCC3)CC3CCCCC31N=2` (configuration not stated) as the compound, how does the IC50 read?
Its IC50 is 28.2 µM.

With `N#Cc1ccc(CSc2nnc(Cc3cccs3)n2Cc2ccco2)cc1` as the compound, how does the IC50 read?
Its IC50 is 46.5 µM.

Which IC50 does the source give for `COc1ccc(NS(=O)(=O)c2cccc(Cl)c2Cl)cc1S(=O)(=O)N1CCCCC1` here?
Its IC50 is 76.1 µM.

`CCc1ccc(NC(=O)N(CCN2CCOCC2)Cc2ccc3c(c2)CCCN3CC)cc1` was tested. Which IC50 did it give?
The IC50 was 88.1 µM.

`O=[N+]([O-])c1ccc(-c2ccc(/C=N/c3c(-c4ccco4)nc4ccccn34)o2)cc1` was tested. Which IC50 did it give?
The IC50 was 0.26 µM.

With `CCC(=O)NNc1ncnc2ccccc12` as the compound, how does the IC50 read?
Its IC50 is 16.4 µM.

For `Cc1cc(C)cc(Nc2ncc3c(n2)CC(c2ccco2)CC3=O)c1` (configuration not stated), which IC50 is on record?
Its IC50 is 6.84 µM.

Reference: PubChem BioAssay AID1117319 (Southern Research Institute, 2015)
